What all share (test): inhibition of tumour cell growth, NCI panel, 48 h
Assay [1] has as its system HCT-15.
For assay [2], the system named is HL-60.
In assay [3] the test system is COLO 205.
The test system of assay [4] is HOP-92.
For assay [5], the system named is IGROV-1.
Assay [6] deals with CCRF-CEM.
Assay [7] relates to NCI/ADR-RES.
The subject of assay [8] is SW-620.
Assay [9] deals with HT-29.
Assay [10] deals with OVCAR-5.
The test system of assay [11] is NCI-H23.
Assay [12] concerns SK-MEL-5.
Assay [13] relates to MOLT-4.
For assay [14], the system named is M14.
For assay [15], the system named is DU-145.
Assay [16] has as its system OVCAR-8.
For assay [17], the system named is ACHN.
The test system of assay [18] is CAKI-1.
Assay [19] concerns UACC-257.

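Grown in 96-well plates, cells were treated for 48 hours with each compound at five concentrations. Insufficient inhibition: endpoint recorded as highest concentration tested. GI50 marks 50% less growth.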 Calls of active or inactive are those of the source. No stated cut-off is given here; in the data, active = GI50 up to about 1.1 µM and inactive = higher. Where only a bound is given, the exact number is not on record here.

Take `CC(C)=CCNc1ncnc2c1ncn2CCC(=O)OC(C)(C)C`: the GI50 was greater than 100 µM in assay [1]; > 100 µM (inactive) in [2]; > 100 µM (inactive) in assay [3]; 49.7 µM (inactive) in [4]; > 100 µM (inactive) in [5]; 22 µM (inactive) in assay [6]. The GI50 in assay [7] was 42.9 µM (inactive); in [8], > 100 µM (inactive); in assay [9] it was > 100 µM (inactive); in assay [10], > 100 µM (inactive); in assay [11] it was > 100 µM (inactive); in [12], 21.4 µM (inactive). The GI50 is 14.2 µM (inactive) in assay [13]; > 100 µM (inactive) in assay [14]; > 100 µM (inactive) in assay [15]; > 100 µM (inactive) in [16]; > 100 µM (inactive) in assay [17].
As to `Cc1cc2ccccc2n2c1nc1ccc(O)cc12`, the GI50 in [1] is greater than 10 µM; in [2] it was > 10 µM (inactive); in assay [3] it was > 10 µM (inactive); in [5] it was > 10 µM (inactive); in [6], > 10 µM (inactive); in assay [7], > 10 µM (inactive). Further, the GI50 was > 10 µM (inactive) in assay [8]; > 10 µM (inactive) in [9]; > 10 µM (inactive) in assay [10]; > 10 µM (inactive) in assay [11]; > 10 µM (inactive) in assay [12]; 5.69 µM (inactive) in assay [13]. The GI50 in assay [14] was > 10 µM (inactive); in assay [15], > 10 µM (inactive); in [18], > 10 µM (inactive); in assay [16], 7.29 µM (inactive); in assay [19], > 10 µM (inactive); in assay [17], 9.91 µM (inactive).
For the compound `CC12CCC(/C(=N/c3cc(C(F)(F)F)cc(C(F)(F)F)c3)C1=O)C2(C)C` (centres undefined), the GI50 is 29.1 µM in [1]; 1.04 µM (active) in [2]; 19.1 µM (inactive) in assay [3]; 25.2 µM (inactive) in assay [5]; 0.453 µM (active) in [6]; 44.3 µM (inactive) in [7]. For the same compound, the GI50 in [8] is 28.1 µM (inactive); in assay [9], 68.5 µM (inactive); in assay [10] it was 56.4 µM (inactive); in [11], 25.7 µM (inactive); in assay [12], 48.2 µM (inactive); in [13], 17.4 µM (inactive). Also, the GI50 in assay [14] was 30.6 µM (inactive); in assay [15], 40.6 µM (inactive); in [18], 44 µM (inactive); in assay [16] it was 81.5 µM (inactive); in assay [19], 46.6 µM (inactive); in assay [17], > 100 µM (inactive).
Turning to `O=C(O)c1cc2c(cc1CC(Cc1ccccc1)C(=O)O)CCC2` (centres undefined), the GI50 in assay [1] is greater than 100 µM; in assay [2] it was > 100 µM (inactive); in [3], > 100 µM (inactive); in assay [5], > 100 µM (inactive); in assay [6], > 100 µM (inactive); in [7], > 100 µM (inactive). In addition, the GI50 in assay [8], in [9], in assay [10], in assay [11], in [12] and in assay [13] was > 100 µM (inactive) each time. For the same compound, the GI50 in assay [14], in assay [15], in assay [18], in [16], in assay [19] and in assay [17] was > 100 µM (inactive) throughout.
Take `COc1cc2c(cc1O)NC(=S)[C@@H]1CCCN1C2=O`: the GI50 in [1] was greater than 100 µM; in assay [3] it was > 100 µM (inactive); in assay [4], > 100 µM (inactive); in [5], > 100 µM (inactive); in assay [6], 76.6 µM (inactive); in [7], > 100 µM (inactive). For the same compound, the GI50 in assay [8], in [9], in assay [10], in [11], in assay [12] and in assay [13] was > 100 µM (inactive) in each case. Also, the GI50 in assay [14], in assay [15], in [18], in [16], in assay [19] and in [17] was > 100 µM (inactive) throughout.
On to `CCCN(CCCc1ccccc1)CCc1ccc2[nH]c(=S)[nH]c2c1`, for which the GI50 in [1] is 25.8 µM; in assay [3] it was 16.8 µM (inactive); in assay [4] it was 8.87 µM (inactive); in assay [5], 14.1 µM (inactive); in assay [7], 20.5 µM (inactive); in [8], 27 µM (inactive). Also, the GI50 in assay [10] is 48.5 µM (inactive); in [11], 40.6 µM (inactive); in assay [13], 11.3 µM (inactive); in assay [14] it was 16.7 µM (inactive); in assay [15], 44.3 µM (inactive); in [18], 28.9 µM (inactive). The values for the GI50 in assay [16], in [19] and in [17] were 28.8 µM (inactive), 25.6 µM (inactive) and 29.2 µM (inactive), respectively.
Consider `O=C1CCC2(O)C3Cc4ccc(Oc5nnnn5-c5ccccc5)c5c4C2(CCN3CC2CC2)C1O5` (centres undefined), for which the GI50 is 35.5 µM in assay [1]; 17.5 µM (inactive) in [3]; 50.2 µM (inactive) in [4]; > 100 µM (inactive) in [5]; 18.6 µM (inactive) in assay [6]; 86.7 µM (inactive) in assay [7]. The GI50 in assay [8] is 33.7 µM (inactive); in [9], 26.4 µM (inactive); in [10], > 100 µM (inactive); in [11] it was > 100 µM (inactive); in assay [12], 12.8 µM (inactive); in assay [13] it was 21 µM (inactive). Besides, the GI50 in assay [14] was 18 µM (inactive); in [15] it was > 100 µM (inactive); in [18], > 100 µM (inactive); in [16], 63.4 µM (inactive); in assay [19], 28.2 µM (inactive); in [17], > 100 µM (inactive).
Turning to `CC(C)C1=C(Cc2ccccc2)C(=O)O/C1=C\c1ccc(O)c(Cl)c1`, the GI50 in [1] is 16 µM; in assay [2] it was 15.7 µM (inactive); in [3], 20.4 µM (inactive); in assay [5], 16.8 µM (inactive); in assay [6], 15.5 µM (inactive); in assay [7], > 10 µM (inactive). The GI50 in assay [8] is 19.1 µM (inactive); in assay [9], 18.8 µM (inactive); in assay [10], 18.4 µM (inactive); in assay [11], 13.1 µM (inactive); in assay [12] it was 16.7 µM (inactive); in assay [13] it was 10.9 µM (inactive). The GI50 in [14] is 17.5 µM (inactive); in assay [15], 18.2 µM (inactive); in assay [18], 18.6 µM (inactive); in assay [16] it was 18.3 µM (inactive); in [19], 18.8 µM (inactive); in assay [17], 14.9 µM (inactive).
Turning to `CC(C)C1(C)N=C(C(F)(F)F)c2cc(C(=O)C(F)(F)F)c3ccccc3c2N1` (centres undefined), the GI50 in [1] was 3.23 µM; in assay [2], 4.62 µM (inactive); in [3] it was 4.14 µM (inactive); in [5] it was 1.16 µM (inactive); in [6], 15.8 µM (inactive); in [7], 2.78 µM (inactive). In addition, the GI50 in assay [8] was 5.55 µM (inactive); in assay [9] it was 3.44 µM (inactive); in [10], 11.2 µM (inactive); in assay [11] it was 2.77 µM (inactive); in assay [12], 10.7 µM (inactive); in [13], 3.07 µM (inactive). In addition, the GI50 in assay [14] was 4.99 µM (inactive); in assay [15], 3.71 µM (inactive); in assay [18], 3.34 µM (inactive); in assay [16] it was 4.17 µM (inactive); in assay [19], 6.55 µM (inactive); in assay [17] it was 3.53 µM (inactive).
For the compound `CC[C@H]1C[C@@H](O)[C@@H]2[C@H](O)[C@H](O)CN2C1`, the GI50 in [1] is greater than 100 µM; in [2] it was > 100 µM (inactive); in [4], > 100 µM (inactive); in [5] it was > 100 µM (inactive); in assay [6], > 100 µM (inactive); in assay [7], > 100 µM (inactive). Moreover, the GI50 in assay [8], in assay [9], in assay [10], in [12], in assay [13] and in assay [14] was > 100 µM (inactive) throughout. The GI50 in assay [15], in [16], in assay [19] and in [17] was > 100 µM (inactive) in each case.
Turning to `O=C1C=CC(=O)c2c1ccc1c3ccccc3n(Cc3ccccc3)c21`, the GI50 in [1] is 21.9 µM; in [3] it was 18.9 µM (inactive); in assay [4], > 10 µM (inactive); in assay [5] it was 21.6 µM (inactive); in assay [6], 1.8 µM (inactive); in assay [7] it was 42.2 µM (inactive). For the same compound, the GI50 in assay [8] is 7.21 µM (inactive); in assay [9], 24.9 µM (inactive); in [10], 20.9 µM (inactive); in [11] it was 19.5 µM (inactive); in assay [12], 32.3 µM (inactive); in assay [13] it was 7.55 µM (inactive). The GI50 in [14] is 18 µM (inactive); in assay [15] it was > 80.4 µM (inactive); in [18] it was 17.2 µM (inactive); in assay [16] it was 28.2 µM (inactive); in assay [19], 19 µM (inactive); in assay [17], 18.2 µM (inactive).
On to `COc1c(-c2nc3ccc(N4CCN(C)CC4)nc3[nH]2)cc(OC)c2[nH]c(CO)nc12`, for which the GI50 in assay [1] is greater than 100 µM; in assay [3], > 100 µM (inactive); in assay [4], > 100 µM (inactive); in assay [5], > 100 µM (inactive); in assay [7], > 100 µM (inactive); in [8], > 100 µM (inactive). Further, the GI50 in [9] was > 100 µM (inactive); in [10] it was > 100 µM (inactive); in [11] it was > 100 µM (inactive); in assay [12] it was > 100 µM (inactive); in assay [13], 52.2 µM (inactive); in [14], > 100 µM (inactive). Moreover, the GI50 in assay [15], in [18], in [16], in assay [19] and in [17] was > 100 µM (inactive) throughout.

The values above are taken from ChEMBL document CHEMBL1201862, “PubChem BioAssay data set” (2004).
